Reference: US20150291507A1, “PANTHENYL DOCOSAHEXAENEOATE AND ITS USE FOR TREATING AND PREVENTING CARDIOVASCULAR DISEASES” (PIERRE FABRE MEDICAMENT, priority 2010, published 2015)

Test system: atrial refractory period
Experiment: Atrial refractory period in the anesthetized pig (electrical stimulation S1/S2, left atrium)
Assay type: in vivo, pig (male Landrace)
Experimental: The study was carried out on male Landrace pigs (20-25 kg). Anesthesia was maintained with isoflurane (0.5-3% of lung tidal volume). Number of respirations and tidal volume were adjusted so as to maintain blood gases within physiological limits. A left lateral thoracotomy was performed in the fourth intercostal space and the pericardium was opened. Polyethylene-filled catheters were introduced into the nearest thoracic artery to measure arterial pressure during the experiment and in the left saphenous vein to administer the active products or a control carrier. An atrial electrocardiogram (ECG) was continuously recorded, with three electrodes placed and sutured in the epicardium and the fourth serving as mass and placed in the thoracic muscles. Thus, the ECG provides information on atrial activity. Two bipolar electrodes were also placed in the left atrium at an interval of 0.3 cm and were maintained by fishing hooks. Electrical stimulations were carried out by a stimulator (DS 8000, WPI). […] The panthenyl docosahexaenoate of formula A (quantity: 10+10 mg/kg, n=4) was administered in the form of a bolus over 1 minute and then allowed to diffuse for 40 minutes. […]

Structure (SMILES): CC/C=C\C/C=C\C/C=C\C/C=C\C/C=C\C/C=C\CCC(=O)OCCCNC(=O)C(O)C(C)(C)CO (stereo in doubt) [panthenyl docosahexaenoate of formula A, 3-[(2R)-2,4-dihydroxy-3,3-dimethylbutanamido]propyl(4Z,7Z,10Z,13Z,16Z,19Z)-docosa-4,7,10,13,16,19-hexaenoate]
- increase in atrial refractory periods (ARPs) (intravenous 10 mg/kg + 10 mg/kg (bolus over 1 minute, then 40 minutes), anesthetized male Landrace pigs, n=4, p<0.001, placebo -4±3 ms): 19 ± 2 ms
- activity on atrial refractory period compared with the panthenol diester (same formulation and administration, anesthetized pigs, FIG. 1): significantly more active than the panthenol diester
